Measured values reported in PubChem BioAssay AID712 (Emory University Molecular Libraries Screening Center, 2007).
Active and inactive are the calls of the source. No rule for the calls is given here.

The compounds below were run against Heat shock protein HSP 90-alpha (Homo sapiens) (UniProt P07900) (assay: Hsp90 blockade concentration-response – dose response (AID 712)). Details: Hsp90 inhibition assay.

Row | Structure (SMILES) | IC50
1 | O=C1C(c2ccc3ccccc3n2)=C(O)c2ccccc21 | > 50 µM (inactive)
2 | O=C(O)/C=C/c1ccc(O)c(O)c1 | > 50 µM (inactive)
3 | Cc1cc(SCC(N)=O)nc(SCC(=O)c2ccccc2)n1 | > 50 µM (inactive)
4 | O=C1C(c2cnc3c(n2)CCC=C3)=C(O)c2ccccc21 | > 50 µM (inactive)
5 | O=C(c1n[nH]c(=O)c2ccccc12)N1CCN(C2c3ccccc3-c3ccccc32)CC1 | > 50 µM (inactive)
6 | CC(CCN(C)C)Nc1cc(O)cc2cccnc12 (centres undefined) | 1.56 µM
7 | CCCc1cc2c(cc1NS(=O)(=O)c1ccc(CCNC(C)=O)cc1)OCO2 | > 50 µM (inactive)
8 | CCOc1ccc2ccccc2c1-c1cc(NS(=O)(=O)c2ccc(OC)c(OC)c2)ccc1N | > 50 µM (inactive)
9 | COc1ccc(OC)c(-n2c(C)nc3cc(C(=O)O)ccc32)c1 | 29.8 µM
10 | N#Cc1cc(S(=O)(=O)Nc2cc(OCc3ccccc3)cc3cccnc23)ccc1F | > 50 µM (inactive)
11 | COC(=O)c1ccc2c(c1)SC1=C(CCCC1=O)N2 | 10.9 µM
12 | CCn1c(CSc2nccn2C)nc2cc(C(=O)O)ccc21 | 13.4 µM
13 | O=S(=O)(Nc1ccc(O)c(-c2c(O)ccc3ccccc23)c1)c1ccccc1 | 13 µM
14 | Nc1nc2c(s1)CCc1c-2cnn1-c1ccccc1 | 11.2 µM
15 | CCOC(=O)c1oc2c(O)c(O)ccc2c(=O)c1-c1nncn1-c1ccccc1 | 24.1 µM
16 | Nc1cccc(S(=O)(=O)Nc2ccc(N)c(-c3ccccc3O)c2)c1 | > 50 µM (inactive)
17 | O=S(=O)(Nc1cc(O)cc2cccnc12)c1ccc(F)cc1 | 11.2 µM
18 | O=C(COc1ccc(-c2ccccc2)cc1)N1CCN(C(=O)c2cccnc2)CC1 | > 50 µM (inactive)
19 | CCS(=O)(=O)NCc1ccc2[nH]c3c(c2c1)CCCC3 | 29.2 µM
20 | Oc1ccc(-c2onc(C(F)(F)F)c2-c2cscn2)c(O)c1 | 18 µM
21 | O=C1c2ccccc2-c2onc3ccc(NCCCn4ccnc4)c1c23 | 0.28 µM
22 | Nc1cc(=O)c2n[nH]nc2[nH]1 | > 50 µM (inactive)

Row | Structure (SMILES) | IC50
23 | CC(Cc1ccc(O)c(O)c1)C(C)Cc1ccc(O)c(O)c1 (centres undefined) | 2.62 µM
24 | Cc1ccccc1Nc1cc2ccccc2c(=O)[nH]1 | inactive
25 | C=CCn1c(NC(=O)c2ccccc2Cl)c(C#N)c2nc3ccccc3nc21 | > 50 µM (inactive)
26 | C=CCn1c(N)c(C(=O)OCC(C)C)c2nc3ccccc3nc21 | > 50 µM (inactive)
27 | Cc1nnc(NC(=O)CSc2nc(N)cc(N)n2)s1 | > 50 µM (inactive)
28 | COc1cc(C2CC(c3ccccc3O)=NN2)ccc1O (centres undefined) | > 50 µM (inactive)
29 | Nc1ccc2ncccc2c1N | 3.38 µM
30 | CCCCn1c(NC(=O)c2ccco2)c(C(=O)OCC)c2nc3ccccc3nc21 | > 50 µM (inactive)
31 | Nc1cc(Br)cc2cccnc12 | > 50 µM (inactive)
32 | N#Cc1cc(S(=O)(=O)Nc2ccc(F)c(-c3c(O)ccc4c3OCO4)c2)ccc1F | 25 µM
33 | O=C1C(=Cc2ccccn2)CNCC1=Cc1ccccn1 | > 50 µM (inactive)
34 | CCOC(=O)c1sc(NC(=O)CSc2nnc(-c3ccc(OC)cc3)n2CCOC)nc1C | > 50 µM (inactive)
35 | CCOC(=O)c1cnc(SC2CCc3ccccc3C2=O)nc1N (centres undefined) | 15.1 µM
36 | Nc1ccc(NS(=O)(=O)c2cccc([N+](=O)[O-])c2)cc1-c1ccccc1O | > 50 µM (inactive)
37 | Cc1ccc(S(=O)(=O)Nc2ccc(N)c(-c3ccccc3O)c2)cc1 | > 50 µM (inactive)
38 | Cn1ncnc2c(=O)n(C)c(=O)nc1-2 | 0.238 µM
39 | COc1ccc(S(=O)(=O)Nc2ccc(N)c(-c3ccccc3O)c2)cc1OC | > 50 µM (inactive)
40 | Nc1c(S(=O)(=O)c2cccc(Cl)c2)c2nc3ccccc3nc2n1/N=C/c1ccc(O)c(O)c1 | > 50 µM (inactive)
41 | Oc1cccc2cccnc12 | > 50 µM (inactive)
42 | O=C(CSc1nnc(Cc2cc(=O)[nH]c(=O)[nH]2)n1-c1ccccc1)NCC1CCCO1 (centres undefined) | > 50 µM (inactive)
43 | O=[N+]([O-])c1ccc(O)c2cccnc12 | > 50 µM (inactive)
44 | O=C(NC1(O)C(=O)c2ccccc2C1=O)c1ccccc1 | 19.5 µM
